The test system of this assay is embryonic dorsal root ganglion (DRG) explants. Format: cell-based.

For the compound `NC1=N[C@H](O)[C@H]2[C@H]3O[C@]4(O)O[C@@H]([C@@H](O)[C@@]2(N1)[C@@H]4O)[C@]3(O)CO` [tetrodotoxin], the “effect on electrically evoked compound action potentials (CAPs)” value was “reversibly abolished”.

The values are drawn from US20200386742A1, “CELL SYSTEMS USING SPHEROIDS AND METHODS OF MAKING AND USING THE SAME” (priority 2017, published 2020).
